This is an account of results in PubChem BioAssay AID1996.

A word on the kinetic solubility: it is the concentration staying in solution when a stock, usually in DMSO, is diluted into the medium.

SMILES strings stand for the structures. Values after ≈ are worked out from the molar mass of the structure shown.

The conditions of this data set: buffer; pH 7.4; 200.0 µM.
In turn, `CS(=O)(=O)Cc1ccc(C(=O)NC2CCCc3ccccc32)cc1` (stereo not given) returned a solubility (kinetic) of 9.6 µg/mL (≈ 28 µM).
`CN1CC(=O)N/C1=N\C(=O)Nc1ccc(O)cc1`: the kinetic solubility was more than 37.2 µg/mL.
For the compound `COc1ccc(C(=O)Nc2nc(-c3ccccc3)c(C(C)=O)s2)c(OC)c1`, the kinetic solubility amounted to 0.7 µg/mL (≈ 1.83 µM).
Then `CCN(Cc1ccncc1)C(=O)CSc1ccc2ccccc2c1`, with 32.6 µg/mL (≈ 96.9 µM).
Then `Cn1cccc1/C=N\NC(=O)c1cncc(Br)c1`, with more than 46.1 µg/mL.
Then `Cc1ccc(C(=O)NC(=S)N2CCCCCC2)cc1`, with more than 41.5 µg/mL.
In turn, `Fc1ccccc1Oc1nc(-c2ccncc2)nc2ccccc12` had a solubility (kinetic) of less than 0.2 µg/mL.
In the case of `CC(C)NC(=O)NC(=O)COC(=O)c1cc[n+]([O-])cc1`, the kinetic solubility is more than 42.2 µg/mL.
Consider `Cc1nnc(SCCCCSc2nnc(C)c(=O)[nH]2)[nH]c1=O`, for which the solubility (kinetic) was more than 51.1 µg/mL.
With `COc1ccc(OC)c(N/C(C)=C/C(=O)c2ccncc2)c1`, the kinetic solubility was found to be 36.9 µg/mL (≈ 124 µM).
Then `O=C(COc1ccccc1)Nc1ccc2[nH]c(=O)[nH]c2c1`, with 36.9 µg/mL (≈ 130 µM).
Then `Cn1c(/C=C/c2cccc([N+](=O)[O-])c2)nc2ccccc2c1=O`, with less than 0.2 µg/mL.
On to `COC(=O)c1ccc(NC(=S)NCCCN2CCCC2=O)cc1`, for which the kinetic solubility was more than 50.3 µg/mL.
The value for `Cc1ccc(OCCN2CCOCC2)cc1C` was more than 35.3 µg/mL; that for `CNC(=O)c1csc(-c2cccs2)n1` was 33.3 µg/mL (≈ 148 µM); that for `CCNc1nc(OC)nc(N(OC)S(=O)(=O)c2ccc(C)cc2)n1` was more than 53 µg/mL.
Then `CCc1ccccc1NC(=O)c1cc([N+](=O)[O-])ccc1N1CCOCC1`, with more than 53.3 µg/mL; and `CCOc1ccc(C(=O)OC(C)C(=O)N2CCN(Cc3ccccc3)CC2)cc1` (stereo not given), with more than 59.5 µg/mL; and `O=[N+]([O-])c1ccccc1S(=O)(=O)c1ccccc1[N+](=O)[O-]`, with 0.8 µg/mL (≈ 2.6 µM).
The value for `COc1ccc(S(=O)(=O)Nc2ccccc2C(N)=O)cc1OC` was 47.5 µg/mL (≈ 141 µM); that for `Cc1[nH]c2ccc(Br)cc2c(=S)c1C/C=C/Cl` was 5.3 µg/mL (≈ 16.1 µM).
For `Cc1ccccc1NS(=O)(=O)c1ccc2c(c1)oc(=O)n2C`, the kinetic solubility turned out to be 2.3 µg/mL (≈ 7.22 µM).
The value for `Cc1ccnc(NC(=O)CCNC(=O)c2ccccc2Cl)c1` was more than 47.7 µg/mL.
Then `CCCCN(CC)S(=O)(=O)c1ccc2c(c1)n(C)c(=O)c(=O)n2C`, with 2.8 µg/mL (≈ 7.92 µM); and `CSc1nc2c(cc1C#N)C(=O)CC(C)(C)C2`, with 10.3 µg/mL (≈ 41.8 µM).
Then `N#Cc1ccc(OCc2noc(-c3ccsc3)n2)cc1`, with 0.3 µg/mL (≈ 1.06 µM); and `CC(C)C(=O)NC(=S)Nc1c(Cl)ccc2nsnc12`, with 40.1 µg/mL (≈ 127 µM).
For `CCOc1ccccc1OCCC(=O)Nc1ccc2c(c1)OCO2`, the kinetic solubility was more than 49.4 µg/mL.
`Cc1cc(-c2nc3ccccc3[nH]2)ccc1N` yielded a kinetic solubility of more than 33.5 µg/mL.
Then `O=C(NCCN1CCOCC1)c1ccc(Cl)nc1`, with more than 40.5 µg/mL; and `CCOC(=O)C1CCN(C(=O)Nc2ccc(C)c(Cl)c2)CC1`, with 6.9 µg/mL (≈ 21.2 µM).
The value for `COc1cccc(NC(=O)COC(=O)C2C3CC4OC(=O)C2C4C3)c1` (stereo not given) was 49.5 µg/mL (≈ 143 µM); that for `CN(C(=O)C(Cl)Cl)c1ccc(OC(=O)c2ccco2)cc1` was more than 49.2 µg/mL.
Then `COCCNC(=O)c1ccc2c(c1)C(=O)c1ccccc1-2`, with more than 42.2 µg/mL.
In the case of `CC(C)(C)SCCNC(=O)/C=C/c1ccccc1`, the kinetic solubility is 33.9 µg/mL (≈ 129 µM).
The value for `COC(=O)[C@@H](C)NC(=O)c1ccc2oc(CCc3ccccc3)nc2c1` was 41 µg/mL (≈ 116 µM); that for `N#Cc1c(-c2ccc(F)cc2)c2c([nH]c1=O)-c1ccccc1OC2` was 1.2 µg/mL (≈ 3.77 µM); that for `COc1ccc(NC(=S)Nc2ccccc2SC)c(OC)c1` was 47.5 µg/mL (≈ 142 µM).
In turn, `COc1ccccc1C(=O)OCC(=O)c1ccc(CNC(C)=O)s1` yielded a kinetic solubility of 50.1 µg/mL (≈ 144 µM).
Then `OCC1(Cc2ccccc2)CCN(CCCC2CCCC2)CC1`, with more than 47.3 µg/mL; and `Cc1cccc(OCC(=O)NCCCNC(=O)c2ccccn2)c1`, with 45.4 µg/mL (≈ 139 µM).
As for `CSc1nc2ccc(NC(=O)c3ccccn3)cc2s1`, the kinetic solubility is 0.5 µg/mL (≈ 1.66 µM).
The value for `Cc1cc(C)nc(SCC(=O)N2CCc3ccccc32)n1` was 3.4 µg/mL (≈ 11.4 µM); that for `CC1CCC(NC(=O)C2CC(O)CN2S(=O)(=O)c2ccc([N+](=O)[O-])cc2)CC1` (stereo not given) was more than 61.7 µg/mL; that for `O=C1CSC(c2ccccc2)N1c1ccccc1F` (stereo not given) was 40.3 µg/mL (≈ 147 µM).
`O=C(NCCc1ccccc1)C1(c2ccccc2)CCCC1`: the solubility (kinetic) stood at 28.9 µg/mL (≈ 98.5 µM).
The value for `CCCCSc1nc(O)cc(=O)n1CC` was 33.4 µg/mL (≈ 146 µM); that for `Cc1csc(NC(=O)CSc2nncc(=O)n2N)n1` was more than 44.8 µg/mL.
Compound `COCCCN1CN=C(Nc2nc3ccccc3o2)NC1` displayed a solubility (kinetic) of more than 43.4 µg/mL.
In the case of `Cc1noc2ncnc(Oc3ccc(C(C)(C)C)cc3)c12`, the solubility (kinetic) is less than 0.2 µg/mL.
Then `Cc1c(C(=O)O)nn(-c2cccc(C(F)(F)F)c2)c(=O)c1C#N`, with more than 48.5 µg/mL; and `CC(C)(C)c1ccc2c(c1)N(CC(=O)N1CCCC1)C(=O)CO2`, with more than 47.5 µg/mL.
`CNC(=O)c1cc(S(=O)(=O)NC2CCCCCC2)ccc1C` displayed a kinetic solubility of more than 48.7 µg/mL.
The value for `CC(C)COc1ccc(CNC(=S)Nc2ccccc2)cc1Cl` was less than 0.4 µg/mL.
Then `O=C(NC1CCCC1)c1cc(-c2ccccc2O)on1`, with 2.2 µg/mL (≈ 8.08 µM).
The value for `COc1ccc(-c2c3c(=O)n(C)c(=O)n(C)c3cn2-c2ccc(O)cc2)cc1` was 20.4 µg/mL (≈ 54.1 µM); that for `O=C(NC(=S)Nc1ccccc1)C1CCCCC1` was 0.6 µg/mL (≈ 2.29 µM).
As for `Cn1c(=O)[nH]c2nc[nH]c2c1=O`, the kinetic solubility is more than 24.9 µg/mL.
The value for `COc1ccccc1Cn1c(CO)nc2ccccc21` was 37.4 µg/mL (≈ 139 µM); that for `Cc1cccc(OCC(=O)NCc2nc(-c3ccccc3)no2)c1` was 3.1 µg/mL (≈ 9.59 µM); that for `COCCN1C(=O)c2ccc(C(=O)NCc3ccco3)cc2C1=O` was more than 49.2 µg/mL.
Then `COc1ccc(Cc2c(O)nc(SCC(=O)N3CCOCC3)[nH]c2=O)cc1`, with more than 58.7 µg/mL; and `CC(C)CC(=O)Nc1cc2c3c(c1)CCN3C(=O)CC2`, with more than 40.9 µg/mL.
The value for `COc1ccc2c(c1)[nH]c1c(=O)n(Cc3ccncc3)cnc12` was 5.1 µg/mL (≈ 16.6 µM); that for `COc1cc(NC(=O)c2cccc(S(=O)(=O)N3CCCCC3)c2)cc(OC)c1OC` was 7.2 µg/mL (≈ 16.6 µM).
Compound `CNC(=O)c1c(NC(=O)c2ccco2)sc2c1CCC2` displayed a kinetic solubility of 3.3 µg/mL (≈ 11.4 µM).
Consider `COc1ccc(NC(=O)CN2C(=O)NC3(CCCCCC3)C2=O)cc1Cl`, for which the kinetic solubility came to 13.8 µg/mL (≈ 36.3 µM).
`C=CCNC(=O)c1ccc([N+](=O)[O-])c(Cl)c1`: the kinetic solubility is more than 36.1 µg/mL.
The value for `Clc1ccc(-c2ccc(CN3CCCCC3)o2)cc1` was 30.1 µg/mL (≈ 109 µM); that for `C#CCN1CCN(c2ccc(F)cc2)CC1` was 30 µg/mL (≈ 137 µM).
With `Cc1ccc(CNC(=O)COC(=O)CN2C(=O)C3CC=CCC3C2=O)cc1` (stereo not given), the solubility (kinetic) was more than 55.6 µg/mL.
The value for `O=C(CN1C(=O)COc2ccc(Cl)cc21)N1CCOCC1` was more than 46.6 µg/mL; that for `COC(=O)c1ccc(C(=O)OC)c(NC(=S)N2CCCC(CO)C2)c1` (stereo not given) was 50.9 µg/mL (≈ 139 µM).
Regarding `COc1ccc(OCC(=O)Nc2ccc3c(c2)C(=O)NC3=O)cc1`, the solubility (kinetic) is 2.4 µg/mL (≈ 7.36 µM).
As to `COC(=O)c1ccc(CNC(=O)COC(=O)CCC(=O)c2ccc(F)cc2)cc1`, the kinetic solubility came to 5.5 µg/mL (≈ 13.7 µM).
Then `CC(=O)c1ccc(NC(=O)COC(=O)c2ccc(F)cc2F)cc1`, with 15.2 µg/mL (≈ 45.6 µM); and `Cc1cc(=O)[nH]c(SCc2cccc3cccnc23)n1`, with 13.4 µg/mL (≈ 47.3 µM).
The compound `O=S(=O)(c1cc(F)ccc1F)N1CCN2CCCC2C1` (stereo not given) displayed a solubility (kinetic) of more than 45.4 µg/mL.
`COC(=O)c1[nH]c2ccccc2c1Sc1ccccc1` had a solubility (kinetic) of 0.9 µg/mL (≈ 3.18 µM).
The compound `COC(=O)c1[nH]c2ccccc2c1NC(=O)c1ccccc1F` registered a solubility (kinetic) of 2.1 µg/mL (≈ 6.72 µM).
For `CCC(=O)NCc1csc(-c2cccs2)n1`, the kinetic solubility is more than 37.9 µg/mL.
The value for `O=C(c1ccc([N+](=O)[O-])o1)N1CCc2ccccc21` was 2.6 µg/mL (≈ 10.1 µM).
Then `O=C(CNC(=O)c1ccc(Cl)cc1)NCc1ccccn1`, with more than 45.6 µg/mL; and `O=C(c1ccc2c(c1)OCCCO2)N1CCCCC1`, with 28.6 µg/mL (≈ 109 µM).
In turn, `O=C(Cn1cnc2ccccc21)c1ccc(Br)cc1` registered a kinetic solubility of 40 µg/mL (≈ 127 µM).
Then `Oc1ccc2c(c1)c1c3n2CCNC3CCC1` (stereo not given), with 31.3 µg/mL (≈ 137 µM); and `O=C(NCc1ccccc1)c1nc2ccccc2s1`, with 17.4 µg/mL (≈ 64.8 µM); and `O=C(CCNC(=O)c1ccccc1)Nc1nc2ccccc2s1`, with 4.9 µg/mL (≈ 15.1 µM).
The value for `O=S(=O)(c1ccc2c(c1)CCC2)N1CCNCC1` was more than 40 µg/mL; that for `CCc1cc(SC#N)ccc1N` was 20.7 µg/mL (≈ 116 µM); that for `CCOC(=O)NC(=O)CSc1ccc(C)cc1C` was more than 40.1 µg/mL.
Then `S=C(Nc1cc(Cl)cc(Cl)c1)N1CCCC1`, with 3 µg/mL (≈ 10.9 µM); and `O=C(OCc1ccc(Cl)c(Cl)c1)c1cccnc1Cl`, with less than 0.7 µg/mL; and `COC(=O)c1ccc(OCC(=O)N2CCCc3ccccc32)cc1`, with 45 µg/mL (≈ 138 µM).
`O=C(CC1SCCNC1=O)Nc1ccccc1Cl` (stereo not given) came in with a kinetic solubility of 38.6 µg/mL (≈ 136 µM).
The value for `Cc1nc(/C(N)=N/OC(=O)c2cccc(Cl)c2)c(C(F)(F)F)o1` was more than 52.2 µg/mL.
`Cc1cccc(NC(=S)N(CCN(C)C)Cc2cccs2)c1` yielded a kinetic solubility of 46.7 µg/mL (≈ 140 µM).
Then `Cc1[nH]c(=S)c(C#N)c(-c2ccccc2)c1C(=O)Nc1ccccc1`, with more than 51.8 µg/mL; and `O=C(CSc1nccc(-c2cccs2)n1)Nc1cccc(Cl)c1`, with 2.2 µg/mL (≈ 6.08 µM).
Consider `O=C(c1ccccc1)N1CCN(C(=O)c2ccc3c(c2)OCO3)CC1`, for which the kinetic solubility is more than 50.8 µg/mL.
Then `CCN(CC)C1=C(Cl)C(=O)C(Cl)C12OCCO2` (stereo not given), with more than 42 µg/mL.
On to `Cc1cc(C)nc(NC(=O)Cc2ccc(Br)cc2)n1`, for which the kinetic solubility is more than 48 µg/mL.
With `Fc1ccc(OCCOCCN2CCCC2)cc1`, the solubility (kinetic) came out at 28 µg/mL (≈ 111 µM).
The value for `Cc1cc(C)n(CCCNC(=O)c2ccc(C)o2)n1` was more than 39.2 µg/mL.
The value for `O=C(c1ccc(Cl)c(S(=O)(=O)N2CCOCC2)c1)N1CCCCCC1` was 52.2 µg/mL (≈ 135 µM).
